The record followed here is ChEMBL document CHEMBL3988442, “University of Dundee, Small-Polar-MMV Screening Library” (2021).

A value given as a limit tells only on which side of the number the result lay.

Test [1] in a line: microbe, parasite or virus in culture. Particulars: Mycobacterium tuberculosis, 96 h, read-out: pIC50 (converted).
Test [2] in a line: microbe, parasite or virus in culture. The settings on record: Mycobacterium tuberculosis, 72 h, read-out: pIC50 (converted).

`CC(=O)c1c(C)[nH]c(C(=O)OCC(=O)N(C)C)c1C`: the IC50 is 286 µM in test [1] and 279 µM in test [2].

Take `CC(C)CC(C)Oc1cc(CN)ccn1` (configuration not stated): the IC50 in test [1] and in test [2] was over 501 µM in each case.

`COC(=O)CNc1ccccc1`: the IC50 in test [1] is 123 µM; in test [2], 463 µM.

As to `CN(Cc1cccnc1)C(=O)c1cc(Cl)c[nH]1`, the figures for the IC50 in test [1] and in test [2] were 333 µM and 281 µM, respectively.

`CC(NC(=O)c1ccc(Cl)c(I)c1)C(=O)N(C)C` (configuration not stated): the IC50 in test [1] and in test [2] was over 501 µM in each case.

With `Nc1ccc(CNc2ccc(C(F)(F)F)nn2)cn1`, the IC50 in test [1] and in test [2] was over 501 µM in each case.

For the compound `O=C(NC1CC1)N1CCN(c2ncccc2Cl)CC1`, the IC50 in test [1] and in test [2] was over 501 µM each time.

For the compound `CN1CCN(C(=O)c2cc3c(F)cccc3s2)CC1`, the IC50 was over 501 µM in test [1] and 165 µM in test [2].

In the case of `CN(Cc1ccncc1)S(=O)(=O)c1cccs1`, the IC50 in test [1] is over 501 µM; in test [2] it was 116 µM.

On to `COC(=O)C(O)CNc1ccc(C(F)(F)F)cn1` (configuration not stated), for which the IC50 in test [1] and in test [2] was over 501 µM in each case.

On to `CCCOC(=O)C(C)NC(=O)c1cccs1` (configuration not stated), for which the values for the IC50 in test [1] and in test [2] were 287 µM and 249 µM, respectively.

On to `CCC(=O)c1ccc(CN)cc1`, for which the IC50 is 264 µM in test [1] and over 501 µM in test [2].

Take `Cc1[nH]c2ccc(C(N)=O)cc2c1C`: the IC50 in test [1] is 41.9 µM; in test [2] it was 20.8 µM.

In the case of `Cc1ccc(NC(=O)Cn2ccnc2)cc1`, the figures for the IC50 in test [1] and in test [2] were 171 µM and 159 µM, respectively.

For the compound `COCCCNC(=O)c1coc(Br)c1`, the IC50 in test [1] was 116 µM; in test [2], 118 µM.

As for `CCOc1ccc2cc(S(=O)(=O)NCCO)ccc2c1`, the figures for the IC50 in test [1] and in test [2] were 9.01 µM and 5.84 µM, respectively.

On to `NC(=O)NC(=O)CCN1CCCc2c(Br)cccc2C1`, for which the IC50 in test [1] is 96 µM; in test [2], 48 µM.

On to `O=C(c1ccccn1)N1CCC2(CCCC2)CC1`, for which the IC50 in test [1] is 160 µM; in test [2] it was 245 µM.

For the compound `CCOc1cc(C(=O)NCCCOC(C)C)ccn1`, the IC50 in test [1] was 137 µM; in test [2], 87.9 µM.

`CCC1CN(C(=O)c2ccc3ccccc3n2)CCO1` (configuration not stated): the figures for the IC50 in test [1] and in test [2] were over 501 µM and 97.4 µM, respectively.

As to `N[C@@H]1CCN(Cc2cc(F)cc(C(F)(F)F)c2)C[C@H]1O`, the IC50 in test [1] was over 501 µM; in test [2] it was 266 µM.

As to `COCCN(C)CCNC(=O)c1ccc(Cl)cc1`, the figures for the IC50 in test [1] and in test [2] were over 501 µM and 165 µM, respectively.

As for `O=C(Nc1nc(-c2ccsc2)ns1)C1CCCN1` (configuration not stated), the IC50 in test [1] and in test [2] was over 501 µM throughout.

In the case of `NCC(CO)Cc1ccsc1` (configuration not stated), the IC50 is 176 µM in test [1] and 122 µM in test [2].

As to `CNC1CCN(c2cc(OC)cc(OC)c2)C1` (configuration not stated), the values for the IC50 in test [1] and in test [2] were 225 µM and 309 µM, respectively.

In the case of `COc1ccc(CC2CCN2)cc1` (configuration not stated), the IC50 in test [1] was 250 µM; in test [2] it was 212 µM.

As to `Cc1nc(C(=O)NCc2cccs2)ccc1C#N`, the IC50 is 64.4 µM in test [1] and 82.4 µM in test [2].

Consider `CCOc1cccc(CCN)n1`, for which the IC50 in test [1] was over 501 µM; in test [2] it was 234 µM.

Regarding `NC(=O)C(N)c1ccc2c(c1)OCCO2` (configuration not stated), the IC50 in test [1] and in test [2] was over 501 µM throughout.

For the compound `COCCCNC(=O)c1ccn(-c2ccc(F)cc2)n1`, the IC50 in test [1] was 154 µM; in test [2] it was 114 µM.

On to `Cc1cc(C)cc(OCCNC(=O)CSCC(N)=O)c1`, for which the values for the IC50 in test [1] and in test [2] were over 501 µM and 139 µM, respectively.

Consider `CNC(=O)C(C)Sc1nnnn1-c1ccccc1C` (configuration not stated), for which the IC50 is 213 µM in test [1] and 210 µM in test [2].

For the compound `COC(=O)CSCC(=O)Nc1cc(F)cc(F)c1`, the IC50 was over 501 µM in test [1] and 204 µM in test [2].

For `Cc1ccc(C2CCCN2CCS(C)(=O)=O)s1` (configuration not stated), the IC50 is over 501 µM in test [1] and 205 µM in test [2].

For `O=C(CCN1CCCC1)N1CCc2ccccc21`, the IC50 in test [1] is over 501 µM; in test [2] it was 391 µM.

Consider `COc1ccccc1C(C)NC(=O)Cn1cc(C)cn1` (configuration not stated), for which the IC50 in test [1] was over 501 µM; in test [2] it was 226 µM.

Consider `CCOc1ncc(C(=O)NCC(C)(O)C(C)C)cc1Cl` (configuration not stated), for which the IC50 in test [1] is 141 µM; in test [2], 59.9 µM.

For the compound `CC1c2ccsc2CCN1CCC(=O)NC(N)=O` (configuration not stated), the values for the IC50 in test [1] and in test [2] were 128 µM and 78.1 µM, respectively.

With `CC(CNC(=O)Cn1cccn1)Sc1ccccc1` (configuration not stated), the values for the IC50 in test [1] and in test [2] were 121 µM and 135 µM, respectively.

Take `CN(C)S(=O)(=O)NCCNc1ccc2ccccc2n1`: the IC50 in test [1] is 326 µM; in test [2], 419 µM.

Regarding `CC(C)C[C@H](N)C(=O)N(C)c1ccccc1`, the figures for the IC50 in test [1] and in test [2] were 225 µM and 242 µM, respectively.

Regarding `CC(C)NS(=O)(=O)c1cc(CN)ccc1F`, the IC50 in test [1] and in test [2] was over 501 µM in each case.

Take `COc1cccc(CN2CCC3(CC2)OCC(C)O3)c1` (configuration not stated): the figures for the IC50 in test [1] and in test [2] were 244 µM and 394 µM, respectively.

For the compound `N#Cc1ccc(C(=O)NCC2CC2)cc1`, the IC50 in test [1] and in test [2] was 123 µM in each case.

Regarding `O=C(CNc1ccccc1F)N1CCCCC1`, the IC50 in test [1] was 36.6 µM; in test [2], 71.6 µM.

With `CCC(N)c1ccccc1OC` (configuration not stated), the IC50 in test [1] is over 501 µM; in test [2] it was 267 µM.

In the case of `NCC1CCCN1CCc1ccccc1` (configuration not stated), the IC50 in test [1] and in test [2] was over 501 µM throughout.

`CCc1nc(CCN)cs1`: the IC50 in test [1] is 152 µM; in test [2], 113 µM.

Consider `CC(C)c1cccc(S(=O)(=O)NCCN)c1`, for which the values for the IC50 in test [1] and in test [2] were over 501 µM and 219 µM, respectively.

Consider `Cc1csc(CCN)n1`, for which the IC50 in test [1] and in test [2] was over 501 µM in each case.

With `CC(C)(C)OC(=O)N1CCN(c2ccnc(N)c2)CC1`, the IC50 in test [1] and in test [2] was over 501 µM throughout.

Regarding `CCC(C)NC(=O)Cc1ccc2c(c1)OCCO2` (configuration not stated), the IC50 in test [1] and in test [2] was over 501 µM each time.

For `CCOCCOc1cc(C)ccc1CN`, the values for the IC50 in test [1] and in test [2] were over 501 µM and 208 µM, respectively.

Regarding `O=C(CSc1ccc(F)cc1)N1CCC1`, the IC50 in test [1] is over 501 µM; in test [2] it was 180 µM.

Regarding `CC(Sc1nc2ccccc2o1)C(=O)N1CCOCC1` (configuration not stated), the IC50 in test [1] is 11.7 µM; in test [2], 19.2 µM.

`Cc1cc(N2CCC2c2ccccc2)n2ncnc2n1` (configuration not stated): the figures for the IC50 in test [1] and in test [2] were 245 µM and 162 µM, respectively.

As to `COc1cccc(S(=O)(=O)CCN2CCC(O)CC2)c1`, the IC50 in test [1] is over 501 µM; in test [2] it was 397 µM.

Consider `COCc1ccc(SCC(=O)N(C)C)cc1`, for which the IC50 in test [1] and in test [2] was over 501 µM each time.

`COc1ccccc1NC(=O)c1ccc(C)nc1`: the IC50 in test [1] and in test [2] was over 501 µM each time.

As for `COC(=O)CSc1nc(N)c2ccsc2n1`, the IC50 was over 501 µM in test [1] and 250 µM in test [2].

In the case of `O=C(NCc1ccc(Br)o1)[C@@H]1CCCO1`, the IC50 in test [1] is over 501 µM; in test [2] it was 242 µM.

On to `N#Cc1cccc(C(=O)OCCCn2cccn2)c1`, for which the IC50 in test [1] and in test [2] was over 501 µM each time.

`OCCCC(Nc1ccccn1)c1ccccc1` (configuration not stated): the values for the IC50 in test [1] and in test [2] were 111 µM and 109 µM, respectively.

`CCn1ncnc1CN1CC(Oc2ccccc2)C1`: the IC50 in test [1] was over 501 µM; in test [2], 151 µM.

`CCC(N)C(=O)Nc1ccc2c(c1)CCC2` (configuration not stated): the IC50 in test [1] was 176 µM; in test [2] it was 170 µM.

For `Clc1cncc(NCC2CN(C3CC3)CCO2)n1` (configuration not stated), the IC50 was 311 µM in test [1] and 259 µM in test [2].

With `O=S(=O)(CCNc1cncc(Cl)n1)N1CCSCC1`, the IC50 in test [1] was 215 µM; in test [2], 252 µM.

In the case of `COc1ccc([S+]([O-])Cc2noc(C)n2)cc1` (configuration not stated), the results for the IC50 in test [1] and in test [2] were 143 µM and 206 µM, respectively.

As to `CCC(C)C(=O)NCCNc1ccc(C(F)(F)F)cn1` (configuration not stated), the IC50 was 57.7 µM in test [1] and 51.5 µM in test [2].

Turning to `c1ccc2c(N3CCNCC3)cncc2c1`, the IC50 was 290 µM in test [1] and 460 µM in test [2].

On to `COc1cc(C(=O)NCC2CCC2)cc2c1OCCO2`, for which the IC50 in test [1] is 321 µM; in test [2], 245 µM.

As to `O=C(NCc1ccco1)Nc1nc2c(s1)COCC2`, the IC50 in test [1] and in test [2] was over 501 µM throughout.

Consider `O=C(c1cccc(F)c1)N1CCN(c2nccs2)CC1`, for which the results for the IC50 in test [1] and in test [2] were over 501 µM and 228 µM, respectively.

Consider `OCCCNc1cccc(Cl)c1-n1cccn1`, for which the figures for the IC50 in test [1] and in test [2] were over 501 µM and 183 µM, respectively.

Turning to `CC(C)C(C)(C#N)NC(=O)CNc1cccc(F)c1` (configuration not stated), the IC50 was 292 µM in test [1] and 307 µM in test [2].

As to `CCc1ccc(C(=O)NCc2ccccn2)o1`, the IC50 in test [1] is 138 µM; in test [2], 40.5 µM.

Consider `CC(=O)Nc1ccc(N2CCCCC2)nc1`, for which the IC50 in test [1] is 95.3 µM; in test [2], 97.2 µM.

As to `NCCCc1cccc(F)c1`, the IC50 in test [1] is over 501 µM; in test [2], 74 µM.

Turning to `NCCOc1ccc2ccccc2n1`, the IC50 in test [1] was over 501 µM; in test [2], 244 µM.

Regarding `Cc1cc(C)cc(NC(=O)CNCCCO)c1`, the IC50 in test [1] and in test [2] was over 501 µM each time.

For the compound `CSc1ccccc1NC(=O)CCn1cnc(C#N)n1`, the IC50 in test [1] and in test [2] was over 501 µM throughout.

On to `O=C(CS(=O)(=O)Cc1cccc(Cl)c1)NCC1CC1`, for which the IC50 is 263 µM in test [1] and 83.2 µM in test [2].

Regarding `COc1cc(C)c(S(=O)(=O)N2C[C@@H](O)[C@@H](O)C2)cc1C`, the IC50 in test [1] was over 501 µM; in test [2] it was 229 µM.

In the case of `CCC(CO)Nc1ncc(C(F)(F)F)cc1Cl` (configuration not stated), the IC50 in test [1] and in test [2] was over 501 µM throughout.

With `COc1ccc(C(=O)NCc2ncnn2C)cc1Br`, the IC50 was over 501 µM in test [1] and 326 µM in test [2].

With `CCOc1ccc(C(=O)Nc2ccnc(C)c2)cn1`, the IC50 in test [1] was over 501 µM; in test [2], 279 µM.
